Experimental data reported in ChEMBL document CHEMBL1949518, “Synthesis and biological evaluation of some new 2-pyrazolines bearing benzene sulfonamide moiety as potential anti-inflammatory and anti-cancer agents” (Eur J Med Chem, 2011).

How the values were obtained:
Format in all cases: functional
SN12C [1] = assay: Antiproliferative activity against human SN12C cells assessed as cell growth at 10^-5 M after 48 hrs by SRB assay relative to control; conditions: read-out: Activity
TK-10 = assay: Antiproliferative activity against human TK10 cells assessed as cell growth at 10^-5 M after 48 hrs by SRB assay relative to control; conditions: TK-10, 48 h, read-out: Activity
HCC 2998 = assay: Antiproliferative activity against human HCC2998 cells assessed as cell growth at 10^-5 M after 48 hrs by SRB assay relative to control; conditions: HCC 2998, 48 h, read-out: Activity
SN12C [2] = assay: Anticancer activity against human SN12C cells after 48 hrs by SRB assay; conditions: for CC50: read-out: LC50 (the source's name)
OVCAR-4 [3] = assay: Antiproliferative activity against human OVCAR4 cells assessed as cell growth at 10^-5 M after 48 hrs by SRB assay relative to control; conditions: OVCAR-4, 48 h, read-out: Activity
NCI-H226 = assay: Antiproliferative activity against human NCI-H226 cells assessed as cell growth at 10^-5 M after 48 hrs by SRB assay relative to control; conditions: NCI-H226, 48 h, read-out: Activity
U-251 = assay: Antiproliferative activity against human U251 cells assessed as cell growth at 10^-5 M after 48 hrs by SRB assay relative to control; conditions: U-251, 48 h, read-out: Activity
UACC-257 = assay: Antiproliferative activity against human UACC257 cells assessed as cell growth at 10^-5 M after 48 hrs by SRB assay relative to control; conditions: UACC-257, 48 h, read-out: Activity
[4] = Antiproliferative activity against human Hs 578T cells assessed as cell growth at 10^-5 M after 48 hrs by SRB assay relative to control; conditions: read-out: Activity
HOP-62 = assay: Antiproliferative activity against human HOP62 cells assessed as cell growth at 10^-5 M after 48 hrs by SRB assay relative to control; conditions: HOP-62, 48 h, read-out: Activity
M14 [5] = assay: Antiproliferative activity against human M14 cells assessed as cell growth at 10^-5 M after 48 hrs by SRB assay relative to control; conditions: M14, 48 h, read-out: Activity
A498 = assay: Antiproliferative activity against human A498 cells assessed as cell growth at 10^-5 M after 48 hrs by SRB assay relative to control; conditions: A498, 48 h, read-out: Activity
K562 [6] = assay: Anticancer activity against human K562 cells after 48 hrs by SRB assay; conditions: K562, 48 h
M14 [7] = assay: Anticancer activity against human M14 cells after 48 hrs by SRB assay; conditions: M14, 48 h; for CC50: read-out: LC50 (the source's name)
HCT-15 = assay: Anticancer activity against human HCT15 cells after 48 hrs by SRB assay; conditions: HCT-15, 48 h
RPMI-8226 = assay: Antiproliferative activity against human RPMI8226 cells assessed as cell growth at 10^-5 M after 48 hrs by SRB assay relative to control; conditions: RPMI-8226, 48 h, read-out: Activity
OVCAR-8 = assay: Antiproliferative activity against human OVCAR8 cells assessed as cell growth at 10^-5 M after 48 hrs by SRB assay relative to control; conditions: OVCAR-8, 48 h, read-out: Activity
BT-549 = assay: Antiproliferative activity against human BT549 cells assessed as cell growth at 10^-5 M after 48 hrs by SRB assay relative to control; conditions: BT-549, 48 h, read-out: Activity
786-0 = assay: Antiproliferative activity against human 786-0 cells assessed as cell growth at 10^-5 M after 48 hrs by SRB assay relative to control; conditions: 786-0, 48 h, read-out: Activity
UACC-62 = assay: Anticancer activity against human UACC62 cells after 48 hrs by SRB assay; conditions: UACC-62, 48 h
SK-MEL-5 = assay: Antiproliferative activity against human SK-MEL-5 cells assessed as cell growth at 10^-5 M after 48 hrs by SRB assay relative to control; conditions: SK-MEL-5, 48 h, read-out: Activity
OVCAR-4 [8] = assay: Anticancer activity against human OVCAR4 cells after 48 hrs by SRB assay; conditions: OVCAR-4, 48 h
LOX IMVI = assay: Antiproliferative activity against human LOXIMVI cells assessed as cell growth at 10^-5 M after 48 hrs by SRB assay relative to control; conditions: read-out: Activity
K562 [9] = assay: Antiproliferative activity against human K562 cells assessed as cell growth at 10^-5 M after 48 hrs by SRB assay relative to control; conditions: K562, 48 h, read-out: Activity
SNB-75 = assay: Antiproliferative activity against human SNB75 cells assessed as cell growth at 10^-5 M after 48 hrs by SRB assay relative to control; conditions: SNB-75, 48 h, read-out: Activity
HOP-92 = assay: Antiproliferative activity against human HOP92 cells assessed as cell growth at 10^-5 M after 48 hrs by SRB assay relative to control; conditions: HOP-92, 48 h, read-out: Activity
SF-539 = assay: Anticancer activity against human SF539 cells after 48 hrs by SRB assay; conditions: SF-539, 48 h
HT-29 = assay: Antiproliferative activity against human HT-29 cells assessed as cell growth at 10^-5 M after 48 hrs by SRB assay relative to control; conditions: HT-29, 48 h, read-out: Activity
NCI-H522 = assay: Anticancer activity against human NCI-H522 cells after 48 hrs by SRB assay; conditions: NCI-H522, 48 h
OVCAR-5 = assay: Antiproliferative activity against human OVCAR5 cells assessed as cell growth at 10^-5 M after 48 hrs by SRB assay relative to control; conditions: OVCAR-5, 48 h, read-out: Activity
KM12 = assay: Antiproliferative activity against human KM12 cells assessed as cell growth at 10^-5 M after 48 hrs by SRB assay relative to control; conditions: KM12, 48 h, read-out: Activity
Rattus norvegicus = assay: Antiinflammatory activity in Wistar rat assessed as inhibition of carrageenan-induced paw edema at 20 mg/kg, po administered 30 mins before carrageenan challenge measured after 5 hrs
MDA-MB-435 = assay: Antiproliferative activity against human MDA-MB-435 cells assessed as cell growth at 10^-5 M after 48 hrs by SRB assay relative to control; conditions: MDA-MB-435, 48 h, read-out: Activity
EKVX = assay: Antiproliferative activity against human EKVX cells assessed as cell growth at 10^-5 M after 48 hrs by SRB assay relative to control; conditions: read-out: Activity

## Cc1cc(O)c(C2=NN(c3ccc(S(N)(=O)=O)cc3)C(c3ccc(Cl)cc3)C2)c(C)c1Cl (centres undefined)
SN12C [1]
  growth at 10 µM: 74.8%
TK-10
  growth at 10 µM: 113%
HCC 2998
  growth at 10 µM: 94.1%
SN12C [2]
  GI50: 9.62 µM
  TGI: 24.9 µM
  CC50: 63 µM
OVCAR-4 [3]
  growth at 10 µM: 58.8%
NCI-H226
  growth at 10 µM: 88.8%
U-251
  growth at 10 µM: 78.3%
UACC-257
  growth at 10 µM: 97.6%
[4]
  growth at 10 µM: 82.5%
HOP-62
  growth at 10 µM: 107%
M14 [5]
  growth at 10 µM: 89.3%
A498
  growth at 10 µM: 74.3%
K562 [6]
  GI50: 14 µM
  TGI: 44.8 µM
M14 [7]
  GI50: 14 µM
  TGI: 29.4 µM
  CC50: 61.5 µM
HCT-15
  GI50: 14.2 µM
  TGI: 32 µM
RPMI-8226
  growth at 10 µM: 25.5%
OVCAR-8
  growth at 10 µM: 75.2%
BT-549
  growth at 10 µM: 95.7%
786-0
  growth at 10 µM: 95.6%
UACC-62
  GI50: 9.92 µM
  TGI: 25.8 µM
SK-MEL-5
  growth at 10 µM: 79.6%
OVCAR-4 [8]
  GI50: 13.3 µM
  TGI: 27.6 µM
LOX IMVI
  growth at 10 µM: 82.8%
K562 [9]
  growth at 10 µM: 25%
SNB-75
  growth at 10 µM: 78.7%
HOP-92
  growth at 10 µM: 45.5%
SF-539
  GI50: 15.7 µM
  TGI: 29.3 µM
HT-29
  growth at 10 µM: 52.7%
NCI-H522
  GI50: 18.6 µM
  TGI: 48.4 µM
OVCAR-5
  growth at 10 µM: 96.8%
KM12
  growth at 10 µM: 62.4%
Rattus norvegicus
  inhibition in vivo at 20 mg/kg: 81.8%
MDA-MB-435
  growth at 10 µM: 69.3%
EKVX
  growth at 10 µM: 51.1%

## Cc1cc(O)c(C2=NN(c3ccc(S(N)(=O)=O)cc3)C(c3ccc(N(C)C)cc3)C2)c(C)c1Cl (centres undefined)
SN12C [1]
  growth at 10 µM: 36.1%
TK-10
  growth at 10 µM: 80%
HCC 2998
  growth at 10 µM: 66.5%
SN12C [2]
  GI50: 5.71 µM
  TGI: 19.2 µM
  CC50: 43.9 µM
OVCAR-4 [3]
  growth at 10 µM: 58.9%
NCI-H226
  growth at 10 µM: 106%
U-251
  growth at 10 µM: 70%
UACC-257
  growth at 10 µM: 74.1%
[4]
  growth at 10 µM: 71.2%
HOP-62
  growth at 10 µM: 84.3%
M14 [5]
  growth at 10 µM: 39.1%
A498
  growth at 10 µM: 87.2%
K562 [6]
  GI50: 2.24 µM
  LC50: 33.9 µM
  TGI: 11.5 µM
M14 [7]
  GI50: 2.62 µM
  TGI: 10.4 µM
  CC50: 32.2 µM
HCT-15
  GI50: 5.48 µM
  LC50 (concentration killing 50% of cells): 57 µM
  TGI: 20.8 µM
RPMI-8226
  growth at 10 µM: -37.6%
OVCAR-8
  growth at 10 µM: 5.73%
BT-549
  growth at 10 µM: 112%
786-0
  growth at 10 µM: 43.3%
UACC-62
  GI50: 3.49 µM
  LC50 (lethal concentration 50%): 38.8 µM
  TGI: 15.1 µM
SK-MEL-5
  growth at 10 µM: 81.7%
OVCAR-4 [8]
  GI50: 7.68 µM
  LC50: 49.7 µM
  TGI: 21.2 µM
LOX IMVI
  growth at 10 µM: 52.4%
K562 [9]
  growth at 10 µM: 21%
SNB-75
  growth at 10 µM: 67.4%
HOP-92
  growth at 10 µM: 21.3%
SF-539
  GI50: 12.3 µM
  LC50: 49.7 µM
  TGI: 24.7 µM
HT-29
  growth at 10 µM: 55.1%
NCI-H522
  GI50: 6.24 µM
  LC50: 58.8 µM
  TGI: 21.6 µM
OVCAR-5
  growth at 10 µM: 95.2%
KM12
  growth at 10 µM: 29.1%
Rattus norvegicus
  inhibition in vivo at 20 mg/kg: 36.4%
MDA-MB-435
  growth at 10 µM: 38.6%
EKVX
  growth at 10 µM: 49.7%
